Test results from US20240217969A1, “SUBSTITUTED PYRROLE CARBOXAMIDES, PROCESS FOR THEIR PREPARATION AND THEIR USE AS KINASE INHIBITORS” (priority 2021, published 2024).

Legend:
[1] = target: Cdc7 (Homo sapiens, UniProt O00311); assay: Cdc7 biochemical assay, ADPGlo assay format
Procedure: The biochemical activity of compounds was determined by incubation with specific enzymes and substrate, followed by quantification of the ADP product. Compounds were 4-fold serially diluted from 10 to 0.0006 uM; in the case of the pre-incubation step, the enzyme is added to the inhibitor solution and the mixture is left to incubate for 30 minutes at room temperature (r.t.). The reaction started with the addition of the substrate and the ATP, when the enzyme was already present in the preincubation step, or substrate, ATP and enzyme when the preincubation step was not present. The concentrations of ATP, substrate and reaction buffer are described above. The assays were run in a robotized format on 384-well plates. […] At the end of the incubation time, an equal volume of ADPGlo Reagent 1 (Promega) was added to stop the reaction and to remove all unreacted ATP. After 60 minutes, an equal volume of ADPGlo Reagent 2 (Promega) was added to convert ADP in ATP and then ATP in light by luciferase reaction.
y=bottom+(top−bottom)/(1+10^((log IC50−x)*slope))
where x is the logarithm of the inhibitor concentration, y is the response; y starts at bottom and goes to top with a sigmoid shape.

[2] = target: T1, aldehyde oxidases (human liver cytosol) (Homo sapiens, UniProt Q06278); assay type: in vitro ADME; settings: human liver cytosol 1 mg/mL, 1 μM compound; for HLC % remaining (1 h incub.): 60 min incubation; for HLC % remaining (1 h incub.) / HLC T½ min: pH 7.4, 37° C.; for IntCl (Intrinsic Clearance): half-life approach
T1 construct: added to human liver cytosol (1 mg/mL protein content); from tissue; host or cells: human liver cytosol
Procedure: The aldehyde oxidases involvement in the metabolism of the test item was determined by comparison of the intrinsic clearance values in the presence and absence of aldehyde oxidases inhibitor hydralazine hydrochloride. The purpose of the study was to evaluate the in-vitro intrinsic clearance, the metabolic stability towards aldehyde oxidases (AO) activity and the metabolism of the test item in human liver cytosol. The intrinsic clearance was determined using the half-life approach, by measuring the substrate disappearance along 60 minutes incubation with human liver cytosol. Incubations were performed at the concentration of 1 μM. […] HPLC-MS/MS was used for the detection of the compound left over during the incubation. For intrinsic clearance determination samples were analyzed by high performance liquid chromatography (HPLC) on-line with mass spectrometry (MS) equipment. For the determination of aldehyde oxidases activity (i.e. positive control) of cytosol, phthalazine was incubated with human liver cytosol in presence and absence of the aldehyde oxidases inhibitor. On the day of the incubation, the compound was dissolved in DMSO at the concentration of 10 mM. Aliquots of this solution were added to the test system to a final concentration of […]. The percentage of DMSO in the final incubates was […]. Aliquots of the test item were added to human liver cytosol (1 mg/mL protein content) in Dulbecco's buffer, pH 7.4 at 37° C., to reach final concentration of 1 μM. Incubations were performed in a 48-well plate, under shaking. At 0, 5, 10, 20, 30 and 60 minutes incubation, 50 μL aliquots of the incubate were sampled, poured in 80 μL of ice-cold acetonitrile and 20 μL of 1 μM warfarin in acetonitrile (injection control) and centrifuged at 2500 rpm for 20 minutes. The supernatant was immediately analysed by LC-MS/MS.
The test item was incubated in parallel, in duplicate, at the concentration of 1 μM in Dulbecco's buffer, pH 7.4 for 60 min at 37° C. in the presence of 10 μM hydralazine hydrochloride (aldehyde oxidases inhibitor).
The chemical stability of the test item was checked in parallel by incubating the test item in single at the concentration of 1 μM in Dulbecco's buffer, pH 7.4 for 60 min at 37° C. (negative control).
The intrinsic clearance (CLint) was calculated using the half-life approach. Half-life and CLint were determined from the concentration (area counts) remaining at the different sampling points using the LC-MS/MS method. By plotting the natural logarithmic area of the compound remaining against the time, the slope was calculated by linear regression analysis and converted into the half-life (t½) and CLint expressed as μL/min/mg protein according to the following formulae: […]

Sequence of Cdc7 (O00311 whole entry): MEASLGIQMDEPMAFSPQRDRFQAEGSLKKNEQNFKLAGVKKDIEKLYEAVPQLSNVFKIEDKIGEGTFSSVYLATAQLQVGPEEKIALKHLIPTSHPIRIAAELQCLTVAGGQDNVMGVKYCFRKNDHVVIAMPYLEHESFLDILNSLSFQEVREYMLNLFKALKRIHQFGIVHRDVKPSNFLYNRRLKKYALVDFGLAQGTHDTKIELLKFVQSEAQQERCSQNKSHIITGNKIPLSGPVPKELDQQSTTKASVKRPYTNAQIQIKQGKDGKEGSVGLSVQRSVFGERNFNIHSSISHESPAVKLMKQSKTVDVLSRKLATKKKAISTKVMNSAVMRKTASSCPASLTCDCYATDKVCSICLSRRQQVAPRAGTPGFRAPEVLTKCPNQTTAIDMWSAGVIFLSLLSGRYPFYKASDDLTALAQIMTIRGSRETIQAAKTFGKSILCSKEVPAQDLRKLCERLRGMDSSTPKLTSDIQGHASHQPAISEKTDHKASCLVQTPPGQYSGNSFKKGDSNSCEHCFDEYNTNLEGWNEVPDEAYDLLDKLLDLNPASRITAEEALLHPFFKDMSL
Sequence of Cdc7 (Q9UBU7 whole entry partner): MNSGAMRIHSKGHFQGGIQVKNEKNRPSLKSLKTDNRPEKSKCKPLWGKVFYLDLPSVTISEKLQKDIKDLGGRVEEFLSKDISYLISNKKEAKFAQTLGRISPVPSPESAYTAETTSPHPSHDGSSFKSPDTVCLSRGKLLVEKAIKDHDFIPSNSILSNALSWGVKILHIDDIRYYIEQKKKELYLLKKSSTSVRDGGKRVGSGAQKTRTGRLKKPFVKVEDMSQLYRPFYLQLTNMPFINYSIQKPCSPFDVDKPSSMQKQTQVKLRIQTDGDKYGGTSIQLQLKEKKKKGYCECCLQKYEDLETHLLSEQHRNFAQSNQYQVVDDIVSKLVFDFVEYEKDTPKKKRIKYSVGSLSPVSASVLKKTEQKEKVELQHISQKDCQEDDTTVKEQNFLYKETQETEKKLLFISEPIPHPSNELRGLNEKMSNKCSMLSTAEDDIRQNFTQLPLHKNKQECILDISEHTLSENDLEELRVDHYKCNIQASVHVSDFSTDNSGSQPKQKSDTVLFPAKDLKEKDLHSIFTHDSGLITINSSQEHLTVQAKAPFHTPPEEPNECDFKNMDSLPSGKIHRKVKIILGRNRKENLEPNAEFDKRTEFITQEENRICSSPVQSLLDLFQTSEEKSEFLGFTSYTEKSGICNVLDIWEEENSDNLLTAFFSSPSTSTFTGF
T1 sequence (Q06278 whole entry): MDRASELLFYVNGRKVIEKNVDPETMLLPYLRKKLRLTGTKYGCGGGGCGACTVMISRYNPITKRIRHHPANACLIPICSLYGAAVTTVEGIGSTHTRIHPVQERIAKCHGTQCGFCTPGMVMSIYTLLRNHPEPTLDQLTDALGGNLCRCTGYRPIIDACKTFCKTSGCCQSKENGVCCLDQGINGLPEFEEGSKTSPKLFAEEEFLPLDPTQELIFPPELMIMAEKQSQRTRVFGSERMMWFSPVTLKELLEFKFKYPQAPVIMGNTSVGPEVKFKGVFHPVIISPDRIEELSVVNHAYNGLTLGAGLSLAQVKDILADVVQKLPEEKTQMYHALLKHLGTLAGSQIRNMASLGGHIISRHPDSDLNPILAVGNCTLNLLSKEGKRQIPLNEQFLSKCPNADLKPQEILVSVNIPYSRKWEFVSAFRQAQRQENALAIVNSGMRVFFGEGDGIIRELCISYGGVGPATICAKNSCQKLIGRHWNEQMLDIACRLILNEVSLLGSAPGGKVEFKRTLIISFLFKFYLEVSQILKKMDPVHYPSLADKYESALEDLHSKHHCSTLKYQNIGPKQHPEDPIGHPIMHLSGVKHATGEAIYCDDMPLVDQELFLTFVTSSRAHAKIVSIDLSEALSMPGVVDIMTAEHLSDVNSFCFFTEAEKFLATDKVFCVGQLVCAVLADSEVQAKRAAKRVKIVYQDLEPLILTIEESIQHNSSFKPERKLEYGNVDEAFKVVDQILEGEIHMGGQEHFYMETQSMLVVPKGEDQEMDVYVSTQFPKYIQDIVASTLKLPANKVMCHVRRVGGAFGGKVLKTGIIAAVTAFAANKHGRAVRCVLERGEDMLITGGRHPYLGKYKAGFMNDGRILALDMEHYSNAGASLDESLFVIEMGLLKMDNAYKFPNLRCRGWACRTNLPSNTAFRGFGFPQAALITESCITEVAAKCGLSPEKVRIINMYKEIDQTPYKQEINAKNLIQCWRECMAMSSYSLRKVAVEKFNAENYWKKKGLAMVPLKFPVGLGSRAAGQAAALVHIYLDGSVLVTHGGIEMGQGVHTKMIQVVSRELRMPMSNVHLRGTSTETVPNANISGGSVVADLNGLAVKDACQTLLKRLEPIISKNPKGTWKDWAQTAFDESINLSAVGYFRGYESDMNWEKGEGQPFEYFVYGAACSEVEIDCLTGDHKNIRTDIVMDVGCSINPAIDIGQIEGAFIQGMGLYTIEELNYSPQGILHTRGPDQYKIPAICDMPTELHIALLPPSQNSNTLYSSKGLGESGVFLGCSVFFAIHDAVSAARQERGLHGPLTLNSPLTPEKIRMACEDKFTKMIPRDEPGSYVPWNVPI

| Compound | IC50 [1] [µM] | also measured |
| --- | --- | --- |
| COc1ccc(-c2[nH]c(-c3ccnc4[nH]ccc34)cc2C(N)=O)c(C(F)(F)F)c1 [comp 16, 2-[4-methoxy-2-(trifluoromethyl)phenyl]-5-(1H-pyrrolo[2,3-b]pyridin-4-yl)-1H-pyrrole-3-carboxamide] | 0.006 |  |
| NC(=O)c1cc(-c2ccnc3[nH]ccc23)[nH]c1-c1ccc(OC(F)F)cc1Cl [comp 17, 2-[2-chloro-4-(difluoromethoxy)phenyl]-5-(1H-pyrrolo[2,3-b]pyridin-4-yl)-1H-pyrrole-3-carboxamide] | 0.001 |  |
| NC(=O)c1cc(-c2ccnc3[nH]ccc23)[nH]c1-c1ccc(Cl)c(Cl)c1 [comp 18, 2-(3,4-dichlorophenyl)-5-(1H-pyrrolo[2,3-b]pyridin-4-yl)-1H-pyrrole-3-carboxamide] | 0.031 |  |
| NC(=O)c1cc(-c2ccnc3[nH]ccc23)[nH]c1-c1ccc(F)c(F)c1 [comp 19, 2-(3,4-difluorophenyl)-5-(1H-pyrrolo[2,3-b]pyridin-4-yl)-1H-pyrrole-3-carboxamide] | 0.015 |  |
| CCOc1cccc(-c2[nH]c(-c3ccnc4[nH]ccc34)cc2C(N)=O)c1F [comp 20, 2-(3-ethoxy-2-fluorophenyl)-5-(1H-pyrrolo[2,3-b]pyridin-4-yl)-1H-pyrrole-3-carboxamide] | 0.005 |  |
| Cc1ccc(-c2[nH]c(-c3ccnc4[nH]ccc34)cc2C(N)=O)cc1[N+](=O)[O-] [comp 21, 2-(4-methyl-3-nitrophenyl)-5-(1H-pyrrolo[2,3-b]pyridin-4-yl)-1H-pyrrole-3-carboxamide] | 0.034 |  |
| NC(=O)c1cc(-c2[nH]c(-c3ccnc4[nH]ccc34)cc2C(N)=O)ccc1F [comp 22, 2-(3-carbamoyl-4-fluorophenyl)-5-(1H-pyrrolo[2,3-b]pyridin-4-yl)-1H-pyrrole-3-carboxamide] | 0.027 |  |
| Cc1ccc(-c2[nH]c(-c3ccnc4[nH]ccc34)cc2C(=O)NCCN(C)C)c(F)c1 [comp 24, N-[2-(dimethylamino)ethyl]-2-(2-fluoro-4-methylphenyl)-5-(1H-pyrrolo[2,3-b]pyridin-4-yl)-1H-pyrrole-3-carboxamide] | 0.741 |  |
| Cc1ccc(-c2[nH]c(-c3ccnc4[nH]ccc34)cc2C(=O)N[C@H]2CCCC[C@H]2N)c(F)c1 [comp 26, N-[(1S,2R)-2-aminocyclohexyl]-2-(2-fluoro-4-methylphenyl)-5-(1H-pyrrolo[2,3-b]pyridin-4-yl)-1H-pyrrole-3-carboxamide] | 0.012 |  |
| Cc1ccc(-c2[nH]c(-c3ccnc4[nH]ccc34)cc2C(=O)NCc2ccco2)c(F)c1 [comp 27, 2-(2-fluoro-4-methylphenyl)-N-(furan-2-ylmethyl)-5-(1H-pyrrolo[2,3-b]pyridin-4-yl)-1H-pyrrole-3-carboxamide] | 0.061 |  |
| Cc1ccc(-c2[nH]c(-c3ccnc4[nH]ccc34)cc2C(=O)NCCF)c(F)c1 [comp 28, N-(fluoroethyl)-2-(2-fluoro-4-methylphenyl)-5-(1H-pyrrolo[2,3-b]pyridin-4-yl)-1H-pyrrole-3-carboxamide] | 0.067 |  |
| Cc1ccc(-c2[nH]c(-c3ccnc4[nH]ccc34)cc2C(=O)NC2CCN(C)CC2)c(F)c1 [comp 30, 2-(2-fluoro-4-methylphenyl)-N-(1-methylpiperidin-4-yl)-5-(1H-pyrrolo[2,3-b]pyridin-4-yl)-1H-pyrrole-3-carboxamide] | 3.13 |  |
| NC(=O)c1cc(-c2ccnc3[nH]ccc23)[nH]c1-c1cccc2c1sc1ccccc12 [comp 31, 2-(dibenzo[b,d]thiophen-4-yl)-5-(1H-pyrrolo[2,3-b]pyridin-4-yl)-1H-pyrrole-3-carboxamide] | 0.759 |  |
| Cc1ccc(-c2[nH]c(-c3ccnc4[nH]ccc34)cc2C(N)=O)c2ccccc12 [comp 32, 2-(4-methylnaphthalen-1-yl)-5-(1H-pyrrolo[2,3-b]pyridin-4-yl)-1H-pyrrole-3-carboxamide] | 0.017 |  |
| NC(=O)c1cc(-c2ccnc3[nH]ccc23)[nH]c1-c1cccc(F)c1 [comp 33, 2-(3-fluorophenyl)-5-(1H-pyrrolo[2,3-b]pyridin-4-yl)-1H-pyrrole-3-carboxamide] | 0.014 |  |
| NC(=O)c1cc(-c2ccnc3[nH]ccc23)[nH]c1-c1ccc(OC(F)(F)F)cc1 [comp 34, 5-(1H-pyrrolo[2,3-b]pyridin-4-yl)-2-[4-(trifluoromethoxy)phenyl]-1H-pyrrole-3-carboxamide] | 0.042 |  |
| NC(=O)c1cc(-c2ccnc3[nH]ccc23)[nH]c1-c1csc2ccccc12 [comp 35, 2-(1-benzothiophen-3-yl)-5-(1H-pyrrolo[2,3-b]pyridin-4-yl)-1H-pyrrole-3-carboxamide] | 0.007 |  |
| NC(=O)c1cc(-c2ccnc3[nH]ccc23)[nH]c1-c1ccc2c(c1)OCCO2 [comp 36, 2-(2,3-dihydro-1,4-benzodioxin-6-yl)-5-(1H-pyrrolo[2,3-b]pyridin-4-yl)-1H-pyrrole-3-carboxamide] | 0.01 |  |
| Cc1cc(F)ccc1-c1[nH]c(-c2ccnc3[nH]ccc23)cc1C(N)=O [comp 37, 2-(4-fluoro-2-methylphenyl)-5-(1H-pyrrolo[2,3-b]pyridin-4-yl)-1H-pyrrole-3-carboxamide] | 0.002 |  |
| Cc1ccc(-c2[nH]c(-c3ccnc4[nH]ccc34)c(I)c2C(N)=O)c(F)c1 [comp 38, 2-(2-fluoro-4-methylphenyl)-4-iodo-5-(1H-pyrrolo[2,3-b]pyridin-4-yl)-1H-pyrrole-3-carboxamide] | 0.101 |  |
| Cc1ccc(-c2[nH]c(-c3ccnc4[nH]ccc34)c(Br)c2C(N)=O)c(F)c1 [comp 39, 2-(2-fluoro-4-methylphenyl)-4-bromo-5-(1H-pyrrolo[2,3-b]pyridin-4-yl)-1H-pyrrole-3-carboxamide] | 0.159 |  |
| CCc1c(-c2ccnc3[nH]ccc23)[nH]c(-c2ccc(C)cc2F)c1C(N)=O [comp 40, 4-ethyl-2-(2-fluoro-4-methylphenyl)-5-(1H-pyrrolo[2,3-b]pyridin-4-yl)-1H-pyrrole-3-carboxamide] | 0.717 |  |
| NC(=O)c1cc(-c2csc(N)n2)[nH]c1-c1ccc(Cl)cc1Cl [compound 45, 5-(2-amino-1,3-thiazol-4-yl)-2-(2,4-dichlorophenyl)-1H-pyrrole-3-carboxamide] |  | HLC % remaining (1 h incub.) [2]: 98%; IntCl (Intrinsic Clearance) [2]: 2.9 μL/min/mg protein; HLC T½ min [2]: 3.98 h |
| NC(=O)c1cc(-c2ccnc3[nH]ncc23)[nH]c1-c1ccc(Cl)cc1Cl [compound 47, 2-(2,4-dichlorophenyl)-5-(1H-pyrazolo[3,4-b]pyridin-4-yl)-1H-pyrrole-3-carboxamide] | 0.004 |  |
| Cc1ccc(-c2[nH]c(-c3c[nH]nc3C)cc2C(N)=O)c(F)c1 [compound 52, 2-(2-fluoro-4-methylphenyl)-5-(3-methyl-1H-pyrazol-4-yl)-1H-pyrrole-3-carboxamide] |  | HLC % remaining (1 h incub.) [2]: 100%; IntCl (Intrinsic Clearance) [2]: 2.9 μL/min/mg protein; HLC T½ min [2]: 3.98 h |
| Cc1ccc(-c2[nH]c(-c3ccnc4[nH]ccc34)cc2C(N)=O)c(F)c1 [compound 53, 2-(2-fluoro-4-methylphenyl)-5-(1H-pyrrolo[2,3-b]pyridin-4-yl)-1H-pyrrole-3-carboxamide] |  | HLC % remaining (1 h incub.) [2]: 100%; IntCl (Intrinsic Clearance) [2]: 2.9 μL/min/mg protein; HLC T½ min [2]: 3.98 h |
| NC(=O)c1cc(-c2ccnc3[nH]ccc23)n(CCO)c1-c1ccc(Cl)cc1Cl [compound 54, 2-(2,4-dichlorophenyl)-1-(2-hydroxyethyl)-5-(1H-pyrrolo[2,3-b]pyridin-4-yl)-1H-pyrrole-3-carboxamide] | 0.418 |  |
